Marks after values point to notes of the source that are not given here.
Key:
[1] = test system: lipase; assay: Anti-lipase activity in tubo (1,2-diglyceride to glycerol, absorbance 570 nm); format: biochemical; conditions: positive reference, concentration not given
Description: The subject of the method is to study the capacity of a composition to provoke and regulate the activity of the lipase enzyme by an in tubo method, said enzyme having an inflammatory action. Lipase has the capacity to convert the colorless 1,2-diglyceride into glycerol, which is pink in color. The samples for the evaluation test are placed in tubo in the presence of lipase and of 1,2-diglyceride, and the absorbance of the samples is measured in a spectrophotometer at a wavelength of 570 nm at the end of their preparation, then after 60 minutes of incubation at 37° C. under the same spectral conditions. By virtue of a range of glycerol, the lipase activity of the samples can be calculated, as can the percentage inhibition, by the following formulas: Lipase activity=(amount of glycerol formed between 0 and 60 minutes)/(60 minutes×sample volume) Percentage inhibition=100×[(lipase activity of control group)−(lipase activity of test product)]/(lipase activity of control group) Statistical Elements: The values are expressed as means+/−standard deviation. The statistical analysis of the results was conducted using a two-sided Student test with a significance threshold set at 5%, by pairwise comparison of the series of values. […]

[2] = test system: TLR-3; assay: IL-8 and hBD2 production by normal human keratinocytes, TLR-3 activated by poly(I:C) (ELISA); format: cell-based; conditions: cells stimulated with poly(I:C), 100 nM
Description: The anti-inflammatory effect of compositions was evaluated on normal human keratinocytes under conditions imitating an imbalance in the cutaneous microbiota through the activation of 3 TLRs (Toll-Like Receptors). These receptors are activated by recognition of specific elements of the microbes, and their function is to alert the immune system in order to activate the body's defenses. In this model, the imbalance in the microbiota was modeled with various stimuli imitating a skin infection: • TLR-5 was activated by flagellin (the main protein of the flagellar filament, present in virtually all bacteria) • TLR-2 was activated by zymosan (glycoprotein complex extracted from yeast membranes) • TLR-3 was activated by poly(I:C) (a synthetic analog of the double-stranded RNA found in viruses)
The effect of the compositions tested was evaluated on the basis of their capacity to modulate the production of IL-8 and of hBD2 induced by these stimuli, using specific “ELISA” kits. The concentration of total proteins was also evaluated, in order to standardize the production of cytokin (IL-8) and of antimicrobial peptide (hBD2).
The values are expressed as means+/−sem [standard error of the mean=standard deviation/root (number of values)].
For each treatment, a calculation was made of: % protection=100×[mean (cells+treatment)−mean (stimulated cells)]/[mean (unstimulated cells)−mean (stimulated cells)] The statistical analysis of the results was conducted using a two-sided Student test with a significance threshold set at 5%, by pairwise comparison of the series of values. A difference between the efficacy of two products is considered to be: • significant if p<0.05; • “at the limit of significance” if 0.05≤p<0.1; • and not significant if p>0.1. B.2.2. Results Obtained In the three tables which follow: For stimulated cells: *** p<0.001 vs unstimulated cells. For treated and stimulated cells: *** p<0.001 vs stimulated cells. The results obtained following activation of TLR-5 by flagellin, the results are set out in table 10 below: […]

Row | SMILES | Lipase activity ([1]; 60 minutes at 37° C., mean +/- standard deviation) | % inhibition of the lipase ([1]; vs control) | IL-8 [2] | IL-8 % protection [2] | hBD2 % protection [2] | hBD2 ([2]; mean +/- sem)
1 | O=C1O[C@H]([C@@H](O)CO)C(O)=C1O [Vitamin C] | 2.11 +/− 0.01 mU/mL | 50*** % | – | – | – | –
2 | CO/C1=C\C(C)=C\[C@@H](C)[C@@H](O)[C@@H](C)C/C(C)=C/C=C/[C@H](OC)[C@@H]([C@@H](C)[C@@H](O)[C@H](C)[C@@]2(O)C[C@@H](O)[C@H](C)[C@@H](C(C)C)O2)OC1=O [bafilomycin] | – | – | <19 pg/mg proteins | 100%*** | 100%*** | 17 +/− 2 pg/mg proteins

Source: patent US12403077B2, “Use of a new composition for preventing or slowing the appearance of signs of inflammation” (SOCIETE D'EXPLOITATION DE PRODUITS POUR LES INDUSTRIES …, priority 2018, dated 2025)
